Measurements as given in US20250032429A1, “2-FLUORODESCHLO[…] TREATMENT OF DEPRESSION, INCLUDING TREATMENT-RESISTANT DEPRESSION” (CLEARMIND MEDICINE INC., priority 2021, published 2025).
Counter-ions that a name gives are not always drawn.

Assays:
[1] = tested on: patients with major depressive disorders; conditions: cited from earlier work
[2] = Dose-response of arylcyclohexamines: intensity of experience after nasal spray, Shulgin + rating; type: in vivo; conditions: for Ketamine effect / 2-DCK effect / 2-FDCK effect / OPCE effect: nasal spray, Shulgin + scale as 1-4; for dose-response curve (shape): administered in the same way, FIG. 1, FIG. 2; for dosage effective as lower threshold: initial experimentation, logarithmic dosing
Description: For safety reasons, when exploring novel psychoactives—the logarithmic scale is adopted for initial dosing to get an idea of whether or not a compound is active and if so, at what dosage ranges.
Following this initial experimentation with OPCE, 2-DCK, and 2-FDCK (Ketamine was later added to the study for reference) it was clear that dosages of 3 mg, 15 mg, and 30 mg, correspondingly, were effective as lower thresholds for further exploration. It was decided to multiply the lower threshold doses by 2, 3 & 4 to explore the effects of higher doses on the mind. Every several days a portion of one of the compounds was measured out on an Ohaus Scout balance scale and prepared for administration via nasal spray using a refillable nasal spray bottle.
The goals were to score a “+” ranking for effect and keep an open mind to look out for any other noteworthy observations. The Shulgin “+” based rating system (SHULGIN, A. T., & SHULGIN, A. (1991). Pihkal: a chemical love story. Berkeley, CA, Transform Press, page 964) for psychedelic experiences was chosen for a yearlong exploration of these various arylcylohexamines. Although the target family of molecules and the type of experience were different from the rating systems' original design, the scale's simplicity yields itself particularly well to this kind of exploration for a few reasons: • (1) The experience rendered by novel psychedelics is often ineffable.
It was therefore desirable to use the simple +, ++, +++, ++++ as 1, 2, 3, 4 to rate intensity of experience without seeking an objective measure for intensity.
When the dosages are adjusted to units that make all dose/response curves fit on the same graph then running a spline through the data points gives us curves that resemble, qualitatively, the curves appearing in FIG. 2.

[3] = tested on: C57BL/6N mice; assay: Mouse forced swim test (FST), two-day paradigm; type: in vivo; conditions: i.p. in saline 30 minutes prior to FST; day 2, final 4 minutes of 6 minute session; vs vehicle
Description: Male 10 week C57BL/6N mice (Taconic) are acclimated to a holding facility one week prior to testing. A two-day FST paradigm is employed, in which mice are exposed to a 10 minute test in absence of drug, and are tested the following day in presence of drug in a 6 minute test. 2-FDCK is administered intraperitoneally (i.p.) in saline vehicle 30 minutes prior to FST. All animals are drug naïve and not previously exposed to behavioral testing.
Male C57BL6N/Tac mice 10 weeks of age are housed four mice per cage under a 12:12 h light/dark cycle and are allowed to acclimate for approximately one week prior to behavioral procedures. Food and water is provided ad libitum. All procedures followed the National Institutes of Health Guide for the Care and Use of Laboratory Animals.
2-FDCK is dissolved in a saline vehicle (0.9% sodium chloride). For the 2-FDCK dose response experiment, mice receive vehicle or varying doses of 2-FDCK i.p. 30 minutes prior to behavior testing.
Mice are tested in a two day forced swim test (FST) procedure. […] On day 2, mice receive i.p. injections 30 minutes prior to being placed in a cylinder for a 6 minute session and immobility time is scored during the final 4 minutes.

[4] = tested on: N-methyl-D-aspartate (NMDA) receptor; conditions: S-enantiomer compared with ketamine; cited from earlier work

For `CNC1(c2ccccc2Cl)CCCCC1=O` (racemic) [Ketamine], the “onset of antidepressant effect” value [1] is given as “rapid antidepressant effect, acting within two hours”, the Ketamine effect ([2]; dosage 28 (mg)) is given as 1 and the Ketamine effect ([2]; dosage 31 (mg)) is given as 1. The Ketamine effect ([2]; dosage 32 (mg)) was 1, the Ketamine effect ([2]; dosage 55 (mg)) was 2 and the Ketamine effect ([2]; dosage 58 (mg)) was 2. For the same compound, the Ketamine effect ([2]; dosage 59 (mg)) was 2, the Ketamine effect ([2]; dosage 62 (mg)) was 2 and the Ketamine effect ([2]; dosage 89 (mg)) was 3. For the same compound, the Ketamine effect ([2]; dosage 90 (mg)) was 4, the Ketamine effect ([2]; dosage 92 (mg)) was 4 and the Ketamine effect ([2]; dosage 114 (mg)) was 4. It also gave a Ketamine effect ([2]; dosage 120 (mg)) of 4 and a Ketamine effect ([2]; dosage 122 (mg)) of 4.

With `CNC1(c2ccccc2)CCCCC1=O` (centres unmarked) [2-DCK] the “dose-response curve (shape)” value [2] was “dose-response curves that start rising sharply at low doses”, the 2-DCK effect ([2]; dosage 15 (mg)) was 1 and the 2-DCK effect ([2]; dosage 16 (mg)) was 1. The 2-DCK effect ([2]; dosage 17 (mg)) was 1, the 2-DCK effect ([2]; dosage 18 (mg)) was 1 and the 2-DCK effect ([2]; dosage 28 (mg)) was 3. It also gave a 2-DCK effect ([2]; dosage 29 (mg)) of 3, a 2-DCK effect ([2]; dosage 31 (mg)) of 3 and a 2-DCK effect ([2]; dosage 33 (mg)) of 3. It also gave a 2-DCK effect ([2]; dosage 42 (mg)) of 4, a 2-DCK effect ([2]; dosage 43 (mg)) of 4 and a 2-DCK effect ([2]; dosage 44 (mg)) of 4. For the same compound, the 2-DCK effect ([2]; dosage 45 (mg)) was 4, the 2-DCK effect ([2]; dosage 46 (mg)) was 4 and the 2-DCK effect ([2]; dosage 57 (mg)) was 4. It also gave a 2-DCK effect ([2]; dosage 58 (mg)) of 4, a 2-DCK effect ([2]; dosage 61 (mg)) of 4 and a 2-DCK effect ([2]; dosage 62 (mg)) of 4. For the same compound, the “dosage effective as lower threshold” value [2] was 15 mg.

For `CNC1(c2ccccc2F)CCCCC1=O` (centres unmarked) [2-FDCK, 2-(2-fluorophenyl)-2-(methylamino)cyclohexan-1-one], the immobility time [3] was “shorter immobility times relative to mice receiving vehicle alone”, the “dose-response curve (shape)” value [2] was “flatter than the dose-response curve for Ketamine” and the 2-FDCK effect ([2]; dosage 28 (mg)) was 1. It also gave a 2-FDCK effect ([2]; dosage 29 (mg)) of 1, a 2-FDCK effect ([2]; dosage 30 (mg)) of 1 and a 2-FDCK effect ([2]; dosage 31 (mg)) of 1. The 2-FDCK effect ([2]; dosage 32 (mg)) was 1, the 2-FDCK effect ([2]; dosage 33 (mg)) was 1 and the 2-FDCK effect ([2]; dosage 35 (mg)) was 1. It also gave a 2-FDCK effect ([2]; dosage 55 (mg)) of 2, a 2-FDCK effect ([2]; dosage 57 (mg)) of 2 and a 2-FDCK effect ([2]; dosage 58 (mg)) of 2. The 2-FDCK effect ([2]; dosage 61 (mg)) was 2, the 2-FDCK effect ([2]; dosage 62 (mg)) was 2 and the 2-FDCK effect ([2]; dosage 88 (mg)) was 3. It also gave a 2-FDCK effect ([2]; dosage 90 (mg)) of 3, a 2-FDCK effect ([2]; dosage 91 (mg)) of 3 and a 2-FDCK effect ([2]; dosage 114 (mg)) of 4. For the same compound, the 2-FDCK effect ([2]; dosage 116 (mg)) was 4, the 2-FDCK effect ([2]; dosage 122 (mg)) was 4 and the 2-FDCK effect ([2]; dosage 124 (mg)) was 4. The “dose response curve (shape) compared to S-ketamine” value ([2]; in treating patients with depression, specifically TRD) was “flatter dose response curve compared to S-ketamine” and the “dosage effective as lower threshold” value [2] was 30 mg.

With `CCNC1(c2ccccc2)CCCCC1=O` (centres unmarked) [OPCE] the “dose-response curve (shape)” value [2] was “dose-response curves that start rising sharply at low doses”, the OPCE effect ([2]; dosage 3 (mg)) was 1 and the OPCE effect ([2]; dosage 4 (mg)) was 1. The OPCE effect ([2]; dosage 6 (mg)) was 1, the OPCE effect ([2]; dosage 9 (mg)) was 2 and the OPCE effect ([2]; dosage 11 (mg)) was 4. The OPCE effect ([2]; dosage 12 (mg)) was 4 and the “dosage effective as lower threshold” value [2] was 3 mg.

For `CN[C@]1(c2ccccc2Cl)CCCCC1=O` [S-ketamine, (S)-2-(2-chlorophenyl)-2-(methylamino)cyclohexanone hydrochloride], the “potency or affinity for the NMDA receptor” value [4] is listed as “higher potency or affinity for the NMDA reception”.
